Drawing on PMC4014121, “Structure of sulfamidase provides insight into the molecular pathology of mucopolysaccharidosis IIIA” (Acta Crystallographica Section D: Biological Crystallography, 2014), this text covers IC50 for two compounds.

This assay addresses T1, SGSH (sulfamidase; N-sulfoglucosamine sulfohydrolase) (Homo sapiens, UniProt P51688).
T1 construct: full-length cDNA with C-terminal RSHHHHHH (residues 503-510), tag kept; secreted from HEK 293 cells, HisTrap purified; signal peptide removed (modelled from residue 21/22); glycosylated; Cys70 converted to formylglycine; homodimer, 55 kDa unglycosylated subunit
T1 sequence (P51688 21-502): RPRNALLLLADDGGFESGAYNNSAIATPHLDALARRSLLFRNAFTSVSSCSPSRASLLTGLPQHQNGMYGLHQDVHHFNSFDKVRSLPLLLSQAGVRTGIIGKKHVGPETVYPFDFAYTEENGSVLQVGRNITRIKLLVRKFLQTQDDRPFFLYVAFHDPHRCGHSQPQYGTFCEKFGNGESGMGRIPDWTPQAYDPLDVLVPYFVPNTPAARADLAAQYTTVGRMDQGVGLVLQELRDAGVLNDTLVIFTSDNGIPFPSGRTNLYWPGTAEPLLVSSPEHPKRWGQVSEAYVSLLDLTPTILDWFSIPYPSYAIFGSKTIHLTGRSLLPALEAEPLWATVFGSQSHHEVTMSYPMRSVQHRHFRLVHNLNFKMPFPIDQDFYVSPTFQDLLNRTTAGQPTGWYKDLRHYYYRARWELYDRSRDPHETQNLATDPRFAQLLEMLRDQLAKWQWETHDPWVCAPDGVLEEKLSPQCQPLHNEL
Description: two-step fluorometric assay with MU-alphaGlcNS, alpha-glucosidase coupled. The class given is biochemical.

Broadly, the IC50 is the concentration needed to halve the response being measured.

In turn, `O=P(O)(O)O` [phosphate] showed an IC50 of 1000 µM. The value for `O=S(=O)(O)O` [sulfate] was 5000 µM.
